From ChEMBL document CHEMBL4610029, “Essential structure of orexin 1 receptor antagonist YNT-707, part V: Structure-activity relationship study of the substituents on the 17-amino group” (Bioorg Med Chem Lett, 2020)

Tests used:
[1] = biological target: T1, Orexin/Hypocretin receptor type 1 (Homo sapiens, UniProt O43613); test: Antagonist activity at OX1R (unknown origin) assessed as inhibition of orexin A-induced intracellular Ca2+ release by cell-based assay; assay type: functional
T1 sequence (O43613 whole entry): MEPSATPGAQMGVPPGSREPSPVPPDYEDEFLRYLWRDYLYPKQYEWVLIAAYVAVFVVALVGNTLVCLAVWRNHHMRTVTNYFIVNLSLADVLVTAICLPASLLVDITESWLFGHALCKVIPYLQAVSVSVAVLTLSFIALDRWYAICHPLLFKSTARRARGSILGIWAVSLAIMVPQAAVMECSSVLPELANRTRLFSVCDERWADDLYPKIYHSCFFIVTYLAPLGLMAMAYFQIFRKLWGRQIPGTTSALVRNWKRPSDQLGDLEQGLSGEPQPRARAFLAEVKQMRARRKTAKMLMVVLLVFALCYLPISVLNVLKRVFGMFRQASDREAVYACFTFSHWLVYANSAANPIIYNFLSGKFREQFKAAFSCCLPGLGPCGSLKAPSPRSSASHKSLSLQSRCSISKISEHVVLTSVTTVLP

[2] = biological target: T2, Orexin/Hypocretin receptor type 1 (Homo sapiens) (UniProt O43613); test: Antagonist activity at OX1R (unknown origin) assessed as inhibition of orexin A-induced intracellular Ca2+ release at 10 uM by cell-based assay relative to control; assay type: functional
T2 sequence (whole entry): T1 sequence (O43613 whole entry)

Row | Structure (SMILES) | Ki ([1]; read-out: Ki) [nM] | further results
1 | COc1ccc2c3c1O[C@@H]1C3[C@@](O)(CC[C@H]1N(C)C(=O)/C=C/c1ccoc1)[C@H](N(CC1CC1)C(=O)C1CC1)C2 (stereo partly specified) | 1090 | –
2 | COc1ccc2c3c1O[C@@H]1C3[C@@](O)(CC[C@H]1N(C)C(=O)/C=C/c1ccoc1)[C@H](N(CC1CC1)C(C)=O)C2 (stereo partly specified) | – | inhibition [2]: 48%
3 | COc1ccc2c3c1O[C@@H]1C3[C@]3(CC[C@H]1N(C)C(=O)/C=C/c1ccoc1)OS(=O)(=O)N(CC1CC1)[C@@H]3C2 (stereo partly specified) | 1200 | –
4 | COc1ccc2c3c1O[C@@H]1C3[C@@H](CC[C@H]1N(C)C(=O)/C=C/c1ccoc1)[C@H](N(C)S(=O)(=O)c1ccccc1)C2 (stereo partly specified) | 829 | –
5 | COc1ccc2c3c1O[C@@H]1C3[C@@](O)(CC[C@H]1N(C)C(=O)/C=C/c1ccoc1)[C@H](NCC1CC1)C2 (stereo partly specified) | – | Ki [1]: Not Active

The remaining compounds from weak to strong by Ki ([1]; read-out: Ki), led by results:

Row | Ki ([1]; read-out: Ki) [nM] | Structure (SMILES) | further results
6 | 538 | COc1ccc2c3c1O[C@@H]1C3[C@]3(CC[C@H]1N(C)C(=O)/C=C/c1ccoc1)OC(=O)N(CC1CC1)[C@@H]3C2 (stereo partly specified) | –
7 | 392 | COc1ccc2c3c1O[C@@H]1C3[C@@H](CC[C@H]1N(C)C(=O)/C=C/c1ccoc1)[C@H](NCC1CC1)C2 (stereo partly specified) | –
8 | 275 | COc1ccc2c3c1O[C@@H]1C3[C@@](O)(CC[C@H]1N(C)C(=O)/C=C/c1ccoc1)[C@H](N(CC1CC1)C(=O)c1ccccc1)C2 (stereo partly specified) | –
9 | 72.8 | COc1ccc2c3c1O[C@@H]1C3[C@@](O)(CC[C@H]1N(C)C(=O)/C=C/c1ccoc1)[C@H](N(CC1CC1)C(=O)OC(C)(C)C)C2 (stereo partly specified) | –
10 | 50.1 | COc1ccc2c3c1O[C@@H]1C3[C@@H](CC[C@H]1N(C)C(=O)/C=C/c1ccoc1)[C@H](N(C)CC1CC1)C2 (stereo partly specified) | –
11 | 14.8 | COc1ccc2c3c1O[C@@H]1C3[C@@H](CC[C@H]1N(C)C(=O)/C=C/c1ccoc1)[C@H](N(CC1CC1)C(=O)OC(C)(C)C)C2 (stereo partly specified) | –
